From patent publication US10905761B2, “Use of a lipopeptide or lipoprotein as an adjuvant in therapeutic or prophylactic vaccinations” (HELMHOLTZ-ZENTRUM FUER INFEKTIONSFORSCHUNG GMBH, priority 2002, dated 2021) come the findings set out here.

In the assay the test system is BALB/c (H-2d) mice. The assay can be described thus: Cellular responses (spleen cell proliferation) after immunization with different MALP-2 doses (Example 3). In kind it is in vivo. As to conditions: 1 μg MALP-2; spleen cells restimulated with β-galactosidase; day 28. The procedure: β-Galactosidase-specific T-cell proliferation responses of mouse spleen cells immunized by the i.p. or i.n. routes with either pure β-galactosidase (40 μg/dose) or β-galactosidase mixed with MAPL-2 (1 or 0.5 μg/dose) on days 0, 7 and 14. On day 28 after the primary immunization, the animals were sacrificed and the spleen cells were restimulated in vitro in the presence of 20 μg/ml soluble β-galactosidase for four days. The results are shown as stimulation indices (cpm of samples/cpm in unstimulated control cells).
Six- to eight-week old female BALB/c (H-2d) mice were purchased from Harlan Winkelmann GmbH (Borchen, Germany) and treated in accordance with local and EU directives. Groups each of 5 mice were immunized on day 1, 7 and 14 either with 40 μg of pure β-galactosidase (Boehringer, Mannheim, Germany), or with admixture of 1 or 0.5 μg of synthetic MALP-2. For the intranasal administration (i.n.), 10 μl was administered into each nostril, while for the i.p. injection β-galactosidase was resuspended with or without MALP-2 in 400 μl of PBS. […] The cells were then harvested on filter paper (Filtermat A; Wallac, Freiburg, Germany) with a cell harvester (Inotech, Wohlen, Switzerland), and the amount of [H]thymidine incorporated into the DNA of the proliferated cells was determined with the aid of a […] scintillation counter (Wallac 1450, Micro-Trilux). […]

No end group written: not given here.

On to “S-[2,3-bispalmitoyloxypropyl]cysteinyl-GNNDESNISFKEK ({S‑(2,3-bispalmitoyloxypropyl)Cys}-GNNDESNISFKEK) [MALP-2]”, for which the “cell-mediated immunization (spleen cell proliferation) at higher dose” value is “cell-mediated immunization is reduced”.
